The record followed here is patent publication US12454520B2, “Protein degraders and uses thereof” (Kymera Therapeutics, Inc., priority 2018, dated 2025).

The test concerns the target T1, SMARCA2 (Homo sapiens, UniProt P51531).
T1 construct: endogenous in cells; host or cells: NCI-H1299
In words: MSD SMARCA2 degradation in NCI-H1299 cell line. The class given is cell-based. The following applies: NCI-H1299 cells, percentage of SMARCA2 degradation after 24 hours. Here is the method:
Example 14. MSD SMARCA2 Degration in NCI-H1299 Cell Line
Cell Culture: Cells were cultured in exponential growth phase.
Compound Preparation and Treatment: NCI-H1299 cells were seeded into the 96-well plate at 4.0*10^4 cells per 100ul per well. Incubate the plate in the incubator overnight. The next day, compounds were diluted to designed stock concentration by TECAN, then perform a 3 fold, 9-point dilution via transferring 15 uL compound into 30 μL DMSO using Apricot. 200 nL diluted compound from compound source plate were transferred into the 96-intermediate plate as designated by using Echo550, followed with 100 ul culture medium to make the 2× compound solution. Cell plate were changed with 80 ul of fresh culture medium and 80 ul of 2× compound solution was added into the well to achieve the final designed concentration. Cell plate was then shaken at 720 rpm for 5 min and incubated for 24 hours in the incubator.
Sample Preparation: Media was aspirated from the cultures and the plate was washed with PBS twice. 60 ul of pre-chilled PIPA lysis buffer (Boston BioProducts BP-115D) with protease inhibitor were directly added into the well to lyze the cells for 20 minutes at 4° C. Cell lysates were collected.
MSD Procedure: The MSD plate was coated with 40 ul cell lysate and incubated at 4° C. overnight. The next day, the MSD coated bare plate was washed 3 times with 150 ul 1×TBST per well, blocked with 150 ul of blocking buffer per well, and shaken for 1 hour at RT, 600 rpm. Blocking buffer was 3% Blocker A in TBST. MSD plate was then washed 3 times with 150 ul 1×TBST per well and Primary Detection antibody (Rabbit anti-SMARCA2/BRM antibody, 100 μg/ml, ab223735) was added to a final [conc.]: 0.3 ug/ml, 25ul/well and shaken for 1 hour at RT, 600 rpm. Antibody was prepared in Antibody Detection buffer (1% Blocker A in 1×TBST). The MSD plate was then washed 3 times with 150 ul 1×TBST per well. Secondary Detection antibody (SULFO-TAG anti-species antibody) was then added to a final [conc.]: 1 μg/ml, 25 ul/well, and shaken for 1 hour at RT, 600 rpm. Antibodies were prepared in Antibody Detection buffer (1% Blocker A in 1×TBST). MSD plate was washed 3 times with 150 ul 1×TBST per well and 2×MSD reading buffer was added, 150 ul per well, and diluted from 4× with water. MSD instrument was then read.
Data Analysis: The percentage of relative level of SMARCA2 level was calculated following equation below.
LC: A2780, SMARCA2 negative cells. HC: NCI-H1299 cells treated with DMSO.
The letter codes for the percentage of SMARCA2 degradation after 24 hours (Dmax %) include: A (>90% degradation), B (>70-90% degradation), C (50-70% degradation), and D (<50% degradation).

T1 sequence (P51531 whole entry): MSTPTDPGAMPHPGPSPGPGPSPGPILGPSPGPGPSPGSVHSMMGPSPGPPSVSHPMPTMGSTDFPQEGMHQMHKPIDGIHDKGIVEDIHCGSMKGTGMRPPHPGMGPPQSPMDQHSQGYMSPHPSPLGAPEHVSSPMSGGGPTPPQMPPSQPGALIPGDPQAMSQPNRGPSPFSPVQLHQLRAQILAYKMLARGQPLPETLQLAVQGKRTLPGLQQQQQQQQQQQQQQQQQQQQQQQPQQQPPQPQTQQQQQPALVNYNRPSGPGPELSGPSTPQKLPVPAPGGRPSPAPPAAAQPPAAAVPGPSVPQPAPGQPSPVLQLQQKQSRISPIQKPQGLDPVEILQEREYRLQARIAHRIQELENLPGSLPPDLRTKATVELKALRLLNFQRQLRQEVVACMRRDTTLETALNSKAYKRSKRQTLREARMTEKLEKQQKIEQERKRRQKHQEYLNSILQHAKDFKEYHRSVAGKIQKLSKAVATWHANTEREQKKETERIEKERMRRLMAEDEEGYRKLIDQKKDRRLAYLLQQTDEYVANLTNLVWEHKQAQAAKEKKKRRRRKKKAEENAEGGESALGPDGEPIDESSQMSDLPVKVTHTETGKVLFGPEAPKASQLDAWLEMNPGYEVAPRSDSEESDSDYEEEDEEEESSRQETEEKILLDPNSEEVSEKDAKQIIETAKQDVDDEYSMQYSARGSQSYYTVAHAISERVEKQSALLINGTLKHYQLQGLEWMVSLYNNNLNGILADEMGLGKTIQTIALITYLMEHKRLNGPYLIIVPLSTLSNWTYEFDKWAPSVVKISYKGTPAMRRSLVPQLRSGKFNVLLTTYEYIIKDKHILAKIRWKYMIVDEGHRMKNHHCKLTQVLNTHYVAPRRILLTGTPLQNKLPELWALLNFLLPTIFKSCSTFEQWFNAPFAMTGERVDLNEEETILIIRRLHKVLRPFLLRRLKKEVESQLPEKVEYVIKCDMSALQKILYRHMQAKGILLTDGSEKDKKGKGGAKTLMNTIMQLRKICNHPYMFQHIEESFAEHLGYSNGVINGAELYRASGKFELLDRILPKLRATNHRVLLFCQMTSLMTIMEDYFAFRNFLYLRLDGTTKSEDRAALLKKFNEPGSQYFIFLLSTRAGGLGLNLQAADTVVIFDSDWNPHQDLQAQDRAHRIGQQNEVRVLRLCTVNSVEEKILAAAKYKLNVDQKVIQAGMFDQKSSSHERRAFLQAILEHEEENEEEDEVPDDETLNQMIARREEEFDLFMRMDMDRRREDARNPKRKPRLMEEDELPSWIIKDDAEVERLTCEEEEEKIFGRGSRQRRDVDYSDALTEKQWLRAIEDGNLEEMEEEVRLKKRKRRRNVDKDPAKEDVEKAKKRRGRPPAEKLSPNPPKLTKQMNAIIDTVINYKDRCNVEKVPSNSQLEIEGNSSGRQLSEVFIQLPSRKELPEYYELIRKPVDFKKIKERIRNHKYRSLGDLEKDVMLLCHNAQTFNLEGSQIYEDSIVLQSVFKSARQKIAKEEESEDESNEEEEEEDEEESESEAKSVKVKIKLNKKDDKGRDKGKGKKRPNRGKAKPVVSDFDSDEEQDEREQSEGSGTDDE

As for `Nc1nnc(-c2ccccc2O)cc1-c1cnn(C2CCN(Cc3cn(Cc4ccc5c(c4)c4cccnc4n5C4CCC(=O)NC4=O)nn3)CC2)c1` (stereo not shown) [I-146, 3-(6-((4-((4-(4-(3-amino-6-(2-hydroxyphenyl)pyridazin-4-yl)-1H-pyrazol-1-yl)piperidin-1-yl)methyl)-1H-1,2,3-triazol-1-yl)methyl)-9H-pyrido[2,3-b]indol-9-yl)piperidine-2,6-dione], the Dmax was in the range of 70 to 90%.

For orientation: Dmax means the greatest extent of degradation seen. Read a low Dmax as a partial loss of target.
